From patent EP3221371B1, “MONOLITHS” (Monolythix, Inc., priority 2014, dated 2016)

System: fluorescently-labeled cell wall material
Experiment: EnzChek Lysozyme Assay of covalently grafted lysozyme
Assay type: biochemical
Settings: one hour at 37 °C, compared with lysozyme standard dilution series (Figure 5)
Procedure: After covalently grafting lysozyme to a small block of carboxy monolith polymeric matrix, the sample was placed into a solution of fluorescently-labeled cell wall material (EnzChek® Lysozyme Assay Kit) and incubated for one hour at 37 °C in a plate reader, along with a lysozyme standard dilution series.
A fresh solution of 160 mg/mL EDAC stock in dry DMSO was prepared. A lysozyme mix was prepared from 20 µL of a 10 mg/mL solution of lysozyme in 1x PBS, 28 µL of a 200 mM MES solution at pH 7.0, and 15 µL water.
7 µL 160 mg/mL EDAC was spotted onto a single 20 mg disc formed from monolith material, (1:2:1 TEGDMA:EGDMA:HEMA plus 2.0% MAA). The prepared lysozyme mix (63 µL) was then added and the sample incubated at room temperature for 1 h. A glycine solution (10 µl; 30 mg/mL solution in 100 mM MES solution at pH 7.0) was then added and the sample incubated for 15 min at room temperature. The disc was then rinsed in water and stored at 4 °C until use.
To test the activity of the immobilized enzyme, a lysozyme-coupled disc and an untreated control disc were each cut into equal 1/8 size pie-shaped segments. Two pieces of each were then added to two wells of a microwell plate and lysozyme substrate was added. […] Fluorescence was read at regular intervals to determine the extent of carbohydrate breakdown and consequent lysozyme activity.

lysozyme chip: Lysozyme covalently grafted with EDAC to carboxy monolith disc (1:2:1 TEGDMA:EGDMA:HEMA plus 2.0% MAA)
final fluorescence signal intensity: greater than the highest standard
